{"source": "patent US5279812A", "about": "“Radiolabeled anticoagulant peptides” (Merrell Dow Pharmaceuticals Inc., priority 1991, dated 1994)", "target": "T1, Bovine thrombin (Bos taurus, UniProt P00735)", "T1 construct": "Bovine thrombin was titrated to an appropriate concentration", "test": "thrombin induced fibrin clot inhibition assay", "type": "biochemical", "conditions": "read-out: In vitro potency", "procedure": "Samples were tested in a thrombin induced fibrin clot inhibition assay. All the solutions of the assay were made with an assay buffer containing 0.12 M sodium chloride, 0.01 M sodium phosphate, 0.01% sodium azide and 0.1% bovine serum albumin, pH 7.4. […] This solution of thrombin (50 ul; 0.2 pmol) was added to the wells of a microtiter plate containing 50 ul of a solution of the synthetic peptide being tested. […] The turbidity of the solution was monitored by the autoreader at 5 min intervals. […] For the assays using human or bovine thrombin, thrombin was titrated to concentrations that gave the fibrin clot at the same rate over a 30 min period."}
{"compound": "CC[C@H](C)[C@H](NC(=O)[C@@H]1CCCN1C(=O)[C@H](CCC(=O)O)NC(=O)[C@H](Cc1cc(I)c(O)c(I)c1)NC(=O)CCC(=O)O)C(=O)N1CCC[C@H]1C(=O)N[C@@H](CCC(=O)O)C(=O)N[C@@H](CCC(=O)O)C(=O)N[C@@H](C)C(=O)N[C@@H](CC1CCCCC1)C(=O)N[C@H](CCC(=O)O)C(=O)O", "note": "[Example 1]", "values": [{"measurement": "IC50", "result": "< 25", "unit": "µM"}]}
